Data on one substance can be found in US8597632B2, “Anionic oligosaccharide conjugates” (Glycan Biosciences LLC, priority 2008, dated 2013).

For one test, the target named is T1, eotaxin-2 (CCL24) (Homo sapiens, UniProt O00175).
T1 construct: host or cells: E. coli
T1 sequence (O00175 27-119): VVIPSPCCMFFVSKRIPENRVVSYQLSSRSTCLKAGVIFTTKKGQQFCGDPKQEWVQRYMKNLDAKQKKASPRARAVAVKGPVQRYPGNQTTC
Nature of the test: BIAcore: inhibition of Eotaxin-2 binding to immobilized heparin. The note with it: % relative to heparin concentration required to inhibit chemokine binding by 50%; heparin set at 100%. From the text:
(§1) The optical phenomenon of surface plasmon resonance is used to monitor physical interactions between molecules. Passing a solution of a potential protein ligand (e.g. IL-4, IL-5, eotaxin-1, eotaxin-2, IL-8 or MCP-1) over a sensor surface to which a target (e.g. heparin) is coupled monitors the real-time binding of protein ligands to the immobilized target. Detection is achieved by measuring refractive index changes very close to the sensor surface. When the refractive index is altered, the angle at which plasmon resonance occurs changes and this change directly correlates with the amount of protein interacting with the surface. A BIAcore 2000 is conveniently used. […]
(§2) Biotinylated heparin is immobilized on the biosensor chip. […] Solutions containing potential protein ligands of interest are injected over the sensor chip surface, and the binding is measured in real time (Fernig, In: Proteoglycan protocols, Ed. R. V. Iozzo, Humana Press, Totowa, N.J., USA, 2001). Baculovirus expressed recombinant human IL-4 (rhIL-4) and baculovirus expressed recombinant human IL-5 (rhIL-5) readily bind to heparin immobilized by this method (see PCT/AU2005/000551). […] Similarly, recombinant human eotaxin-1 (CCL11) expressed in E. coli binds readily to immobilized heparin and binding is specific as there is little eotaxin binding to sensor chips lacking heparin (see 30544601 PCT glycan151). […]

A further test has as its target T2, IL-8 (CXCL8) (Homo sapiens, UniProt P10145).
T2 construct: host or cells: E. coli
T2 sequence (P10145 21-99): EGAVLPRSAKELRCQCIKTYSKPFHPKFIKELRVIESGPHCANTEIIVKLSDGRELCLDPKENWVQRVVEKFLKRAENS
Nature of the test: BIAcore: inhibition of IL-8 binding to immobilized heparin. As to conditions: % relative to heparin concentration required to inhibit chemokine binding by 50%; heparin set at 100%.
From the text: as §1, §2

For the next test, the target named is T3, MCP-1 (CCL2) (Homo sapiens, UniProt P13500).
T3 construct: host or cells: E. coli
T3 sequence (P13500 24-99): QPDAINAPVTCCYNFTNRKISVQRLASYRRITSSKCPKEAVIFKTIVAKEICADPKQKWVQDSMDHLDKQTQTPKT
Briefly: BIAcore: inhibition of MCP-1 binding to immobilized heparin. The note with it: % relative to heparin concentration required to inhibit chemokine binding by 50%; heparin set at 100%.
From the text: as §1, §2
A general note: Surface plasmon resonance follows binding to a sensor surface in real time, without labels.

In test [1] the target is T4, recombinant human IL-4 (rhIL-4) (Homo sapiens, UniProt P05112).
T4 construct: host or cells: baculovirus expression system
T4 sequence (P05112 25-153): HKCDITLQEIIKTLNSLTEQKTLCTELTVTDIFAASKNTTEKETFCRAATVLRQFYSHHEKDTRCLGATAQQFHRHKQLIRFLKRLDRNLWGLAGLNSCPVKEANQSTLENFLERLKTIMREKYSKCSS
Briefly: BIAcore: inhibition of IL-4 binding to a heparin chip. The note with it: End point heparin.
From the text: as §1, §2

The target of test [2] is T5, recombinant human IL-5 (rhIL-5) (Homo sapiens, UniProt P05113).
T5 construct: host or cells: baculovirus expression system
T5 sequence (P05113 20-134): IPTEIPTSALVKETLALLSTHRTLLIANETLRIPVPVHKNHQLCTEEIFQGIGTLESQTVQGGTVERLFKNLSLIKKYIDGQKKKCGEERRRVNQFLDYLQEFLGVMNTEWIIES
Briefly: BIAcore: inhibition of IL-5 binding to a heparin chip. As to conditions: Biotin-heparin.
From the text: as §1, §2

The target in a further test is T6, Human leukocyte elastase (Homo sapiens, UniProt P08246).
T6 sequence (P08246 30-267): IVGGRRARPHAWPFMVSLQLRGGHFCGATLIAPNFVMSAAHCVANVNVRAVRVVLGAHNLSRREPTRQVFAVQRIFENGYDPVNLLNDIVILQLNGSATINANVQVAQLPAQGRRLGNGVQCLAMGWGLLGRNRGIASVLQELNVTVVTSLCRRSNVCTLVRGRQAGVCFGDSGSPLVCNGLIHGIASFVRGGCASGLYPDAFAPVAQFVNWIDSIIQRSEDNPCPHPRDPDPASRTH
Briefly: Human leukocyte elastase fluorogenic substrate assay. The format is biochemical. As to conditions: elastase 5 nM/well, MeOSuc-Ala-Ala-Pro-Val-amido-methylcoumarin 20 μM/well, pH 7.4, 37° C., 60 minutes; read-out: Inhibition of Elastase activity IC50. As for the experimental part:
Elastase is a protein that is a potential target for the treatment of COPD. Elastase assays were performed in 96-well plastic microplates for easy quantification by the fluorescent plate reader. Human leukocyte elastase (5 nM/well) was incubated in the presence ofrabsence of sulfated polysaccharides, with the fluorogenic substrate MeOSuc-Ala-Ala-Pro-Val-amido-methylcoumarin (20 μM/well) in a sodium phosphate buffer, pH 7.4. The mixture was incubated at 37° C. for 60 minutes before the reaction was stopped by the addition of 10 μL/well of […] acetic acid and the mixture transferred to a 96-well microplate with fluorescence being measured using an excitation wavelength of 355 nm and an emission wavelength of 460 nm. Various concentrations of inhibitors were used to allow the calculation of the concentration of anionic oligosaccharide conjugate required to inhibit enzyme activity by 50% (IC50). […] The linked xylopentaose series were not very effective inhibitors of elastase activity. In this assay heparin has an IC50 of approximately 200 nM (Table 6).

In the case of Heparin, the “Concentration for 50% inhibition of Eotaxin-2 binding to heparin chip, as % of heparin's” value on eotaxin-2 (CCL24) was 100%. The “Concentration for 50% inhibition of chemokine binding relative to heparin” value on IL-8 (CXCL8) amounted to 100%. Also, the “IC50 relative to heparin (% of heparin IC50)” value at MCP-1 (CCL2) is 100%. Besides, the IC50 was 3300 nM in test [1], 37 nM in test [2] and roughly 200 nM on Human leukocyte elastase.

Usually IC50 stands for the concentration that gives 50% inhibition.
